Where a SMILES comes first, the peptide text is derived from it. [ ]: non-standard residue; d: D form. dPhe(4-Cl) = N[C@H](Cc1ccc(Cl)cc1)C(=O)O; d2Nal = N[C@H](Cc1ccc2ccccc2c1)C(=O)O; Lys(iPr) = CC(C)NCCCC[C@H](N)C(=O)O; NMeY = CN[C@@H](Cc1ccc(O)cc1)C(=O)O; d3Pal = N[C@H](Cc1cccnc1)C(=O)O
Conditions: rat, in vivo
Method: On day 30, the LHRH agonist Lupron™ (leuprolide) was injected into the rats. Plasma testosterone levels (in ng/ml; indicated by the open boxes in FIG. 2) were determined at various time points as a measure of the activity of the LHRH antagonist in the animal. Plasma levels of PPI-149 (in ng/ml) were also monitored in the animals (indicated by the closed boxes in FIG. 2).

SMILES: CC(=O)N[C@H](Cc1ccc2ccccc2c1)C(=O)N[C@H](Cc1ccc(Cl)cc1)C(=O)N[C@H](Cc1cccnc1)C(=O)N[C@@H](CO)C(=O)N(C)[C@@H](Cc1ccc(O)cc1)C(=O)N[C@H](CC(N)=O)C(=O)N[C@@H](CC(C)C)C(=O)N[C@@H](CCCCNC(C)C)C(=O)N1CCC[C@H]1C(=O)N[C@H](C)C(N)=O [PPI-149, Ac-D-Nal^1,4-Cl-D-Phe^2, D-Pal^3, N-Me-Tyr^5, D-Asn^6, Lys(iPr)^8, D-Ala^10-LHRH] (Ac-[d2Nal][dPhe(4-Cl)][d3Pal]S[NMeY][dN]L[Lys(iPr)]P[dA]-NH2)
- day beyond which PPI-149 could not be detected in plasma: ~8 days
